Results taken from publication PMC12169615, “Fluorescent 4‑Nitrobenzo-2-oxa-1,3-diazole-Coupled Bile Acids as Probe Substrates of Hepatic and Intestinal Bile Acid Transporters of the Solute Carrier Families SLC10 and SLCO” (Journal of Medicinal Chemistry, 2025).
Values joined by “and” are separate entries in the source; they are usually repeats but may differ in a detail not shown here. Equal entries are not always repeated.

Assays:
[1] = design: method as in not given; conditions: ref not given, cited from earlier work
human ASBT = target: T1, human ASBT (Homo sapiens, UniProt Q12908); assay: Transport kinetics of conjugated 3-NBD-BA (concentration-dependent uptake); format: cell-based; design: stably transfected with the full open reading frames of human NTCP, ASBT, SOAT, OATP1B1, and OATP1B3; expressed in transfected cells; conditions: for Transport rates via ASBT across the entire concentration range: ASBT-HEK293, 10 min, +Na+ vs -Na+, not considered biologically meaningful
T1 sequence (Q12908 1-348): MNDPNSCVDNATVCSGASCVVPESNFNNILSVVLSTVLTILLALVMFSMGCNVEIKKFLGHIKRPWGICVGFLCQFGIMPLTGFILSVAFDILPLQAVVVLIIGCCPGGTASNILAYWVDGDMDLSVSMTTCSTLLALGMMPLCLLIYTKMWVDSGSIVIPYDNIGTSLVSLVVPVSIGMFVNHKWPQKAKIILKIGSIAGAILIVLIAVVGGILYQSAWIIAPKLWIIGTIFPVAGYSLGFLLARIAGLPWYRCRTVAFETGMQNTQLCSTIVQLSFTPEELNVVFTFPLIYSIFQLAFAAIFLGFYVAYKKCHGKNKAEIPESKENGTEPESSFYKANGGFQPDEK
Procedure: (§1) In a first step, the time-dependent transport of all conjugated NBD-BA was analyzed. […] Based on these findings, an uptake phase of 10 min was selected as the most practical for subsequent kinetic transport measurements. […] In contrast, for ASBT, reliable carrier-specific concentration-dependent transport rates and K m values could only be determined for 3α-NBD-GCA (16d). The transport rates for 3β-NBD-TCA (14a), 3β-NBD-TCDCA (14b), 3β-NBD-GCA (16a), and 3α-NBD-TCA (14d) were at ≤ 2 across the entire concentration range and were therefore not considered biologically meaningful.
(§2) 7 ASBT and mAsbt transport kinetics for conjugated 3-NBD-BA. Concentration-dependent uptake of the indicated NBD-coupled BA was analyzed in HEK293 cells stably expressing human ASBT or mouse mAsbt at increasing substrate concentrations. Control experiments were performed in the absence of sodium (-Na^+). Uptake was analyzed for 10 min at 37 °C with transport buffer containing the indicated 3-NBD-BA. Afterward, the transport medium was removed, and each cell monolayer was washed and processed for fluorescence detection. Specific uptake was calculated by subtracting the nonspecific uptake in the absence of sodium (-Na^+, open symbols) from the uptake in the presence of sodium (+Na^+, closed symbols) and is shown by dotted lines. Values represent means ± SD of quadruplicate determinations. Michaelis Menten K m values were calculated by nonlinear regression analysis based on the specific uptake data. For ASBT, reliable specific uptake data could only be determined for 3α-NBD-GCA (16d).

mouse mAsbt = target: T2, mouse mAsbt (Mus musculus, UniProt P70172); assay: as above; format: cell-based; design: stably transfected with the full open reading frames of human NTCP, ASBT, SOAT, OATP1B1, and OATP1B3 as well as mouse mNtcp and mAsbt; expressed in transfected cells; conditions: mAsbt-HEK293, 10 min uptake, 37 °C, specific (Na+-dependent) uptake
T2 sequence (P70172 1-348): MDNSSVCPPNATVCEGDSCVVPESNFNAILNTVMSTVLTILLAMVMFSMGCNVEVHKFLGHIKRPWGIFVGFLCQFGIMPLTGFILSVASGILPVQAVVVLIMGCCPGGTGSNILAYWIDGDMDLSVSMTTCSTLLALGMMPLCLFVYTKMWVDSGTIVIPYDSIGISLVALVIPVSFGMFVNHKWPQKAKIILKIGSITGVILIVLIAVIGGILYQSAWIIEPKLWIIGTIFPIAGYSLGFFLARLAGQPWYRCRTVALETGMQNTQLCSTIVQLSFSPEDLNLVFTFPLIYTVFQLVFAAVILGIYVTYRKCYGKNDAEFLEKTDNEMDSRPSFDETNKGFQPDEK
Procedure: as §1, §2

| Compound | Amount injected recovered in the bile ([1]; in situ liver perfusion, injected into the mesenterial vein, within 30 min) | Transport rates via ASBT across the entire concentration range (human ASBT) | K m mAsbt (mouse mAsbt) | Fate in the liver (metabolism, secretion into bile) ([1]; in situ liver perfusion with bile duct cannulation) | K m ASBT (human ASBT; ASBT-HEK293, 10 min uptake, 37 °C, specific (Na+-dependent) uptake) |
| --- | --- | --- | --- | --- | --- |
| C[C@H](CCC(=O)NCCS(=O)(=O)[O-])[C@H]1CC[C@H]2[C@@H]3[C@H](O)C[C@@H]4C[C@@H](Nc5ccc([N+](=O)[O-])c6nonc56)CC[C@]4(C)[C@H]3C[C@H](O)[C@]12C.[Na+] [14a] | 95% | ≤ 2 | 20.0 µM and 20 µM |  |  |
| C[C@H](CCC(=O)NCCS(=O)(=O)[O-])[C@H]1CC[C@H]2[C@@H]3[C@H](O)C[C@@H]4C[C@H](Nc5ccc([N+](=O)[O-])c6nonc56)CC[C@]4(C)[C@H]3C[C@H](O)[C@]12C.[Na+] [14d] |  | ≤ 2 | 11.1 µM | completely transformed within the liver cells to a polar fluorescent metabolite that showed sparse secretion into bile |  |
| C[C@H](CCC(=O)NCC(=O)O)[C@H]1CC[C@H]2[C@@H]3[C@H](O)C[C@@H]4C[C@@H](Nc5ccc([N+](=O)[O-])c6nonc56)CC[C@]4(C)[C@H]3C[C@H](O)[C@]12C [16a] |  | ≤ 2 | 3.5 µM |  |  |
| C[C@H](CCC(=O)NCC(=O)O)[C@H]1CC[C@H]2[C@@H]3[C@H](O)C[C@@H]4C[C@H](Nc5ccc([N+](=O)[O-])c6nonc56)CC[C@]4(C)[C@H]3C[C@H](O)[C@]12C [16d] |  |  | 14.5 µM |  | 14.5 µM |
